Assay results taken from ChEMBL document CHEMBL3885861, “Open TG-GATES”.

Species on record: Rattus norvegicus
Assay: Open TG-GATES - Regimen: Daily Repeat
Assay type: toxicity, organism-based, Sprague-Dawley
Parameters: regimen Daily Repeat, gender Male, age 6 weeks
Conditions: in vivo, po, route gavage; for Eos / Fbg / Hb / Ht / Lym / MCH / MCV / Mono / Neu / PT / Plat / RBC / Ret / WBC / APTT / Bas: tissue Blood; for KIDNEY_L / KIDNEY_R / KIDNEY_TOTAL: tissue Kidney; for LIVER: tissue Liver; for ALP / ALT / AST / BUN / CRE / Ca / Cl / DBIL / GLC / IP / K / LDH / Na / PL / RALB / TBIL / TC / TP / gamma-GTP: tissue Plasma
[1] = 100 mg/kg, 72 h, dose level Middle, time 3 day
[2] = 100 mg/kg, […], dose level Middle, time 7 day
[3] = 100 mg/kg, […], dose level Middle, time 14 day
[4] = 100 mg/kg, […], dose level Middle, time 28 day
[5] = 300 mg/kg, 72 h, dose level High, time 3 day

In the case of NC(=O)N1c2ccccc2C=Cc2ccccc21 [CARBAMAZEPINE], the Eos [1] was 1.2%, the Fbg [1] was 224.6 mg/dL and the Hb [1] was 13.6 g/dL. The Ht [1] was 39.9%, the Lym [1] was 79% and the MCH [1] was 21.3 pg. For the same compound, the MCV [1] was 62.4 fL, the Mono [1] was 2.4% and the Neu [1] was 16.4%. It also gave a PT [1] of 11.9 s, a Plat [1] of 125.3 x10_4/uL and an RBC [1] of 638.8 x10_4/ul. The Ret [1] was 4.9%, the WBC [1] was 79.2 x10_2/uL and the KIDNEY_L [1] was 1 g. The KIDNEY_R [1] was 1 g, the KIDNEY_TOTAL [1] was 2.1 g and the LIVER [1] was 12.1 g. The ALP [1] was 795 IU/L, the ALT [1] was 39.6 IU/L and the AST [1] was 67.2 IU/L. For the same compound, the BUN [1] was 15.8 mg/dL, the CRE [1] was 0.4 mg/dL and the Ca [1] was 11.1 mg/dL. The Cl [1] was 103.4 meq/L, the DBIL [1] was 0.084 mg/dL and the GLC [1] was 217.2 mg/dL. The IP [1] was 7.9 mg/dL, the K [1] was 3.5 meq/L and the LDH [1] was 212.4 IU/L. It also gave a Na [1] of 141.4 meq/L, a PL [1] of 154.4 mg/dL and an RALB [1] of 3.4 g/dL. It also gave a TBIL [1] of 0.1 mg/dL, a TC [1] of 80.6 mg/dL and a TP [1] of 5.8 g/dL. The gamma-GTP [1] was 0.8 IU/L, the TERMINAL_BW [2] was 271.4 g and the TERMINAL_BW [3] was 314.7 g. The TERMINAL_BW [4] was 397.6 g, the APTT [2] was 20.2 s and the Bas [2] was 0%. It also gave an Eos [2] of 1%, a Fbg [2] of 229.8 mg/dL and a Hb [2] of 13.3 g/dL. It also gave a Ht [2] of 39.4%, a Lym [2] of 85% and an MCH [2] of 21.1 pg. It also gave an MCV [2] of 62.5 fL, a Mono [2] of 2.6% and a Neu [2] of 10.8%. For the same compound, the PT [2] was 11.6 s, the Plat [2] was 134.8 x10_4/uL and the RBC [2] was 630.8 x10_4/ul. It also gave a Ret [2] of 5.1%, a WBC [2] of 131.2 x10_2/uL and an APTT [3] of 21.8 s. For the same compound, the Bas [3] was 0%, the Eos [3] was 0.6% and the Fbg [3] was 213.4 mg/dL. It also gave a Hb [3] of 14.4 g/dL, a Ht [3] of 41.3% and a Lym [3] of 80%. For the same compound, the MCH [3] was 20.6 pg, the MCV [3] was 59.1 fL and the Mono [3] was 2%. The Neu [3] was 16%, the PT [3] was 12.4 s and the Plat [3] was 122.9 x10_4/uL. It also gave an RBC [3] of 698.6 x10_4/ul, a Ret [3] of 3.8% and a WBC [3] of 129.1 x10_2/uL. For the same compound, the APTT [4] was 21.1 s, the Bas [4] was 0% and the Eos [4] was 1.2%. It also gave a Fbg [4] of 222 mg/dL, a Hb [4] of 15.7 g/dL and a Ht [4] of 44.3%. It also gave a Lym [4] of 80%, an MCH [4] of 19.5 pg and an MCV [4] of 55.1 fL. For the same compound, the Mono [4] was 2.4%, the Neu [4] was 15.4% and the PT [4] was 12.8 s. It also gave a Plat [4] of 105.9 x10_4/uL, an RBC [4] of 804 x10_4/ul and a Ret [4] of 2%. It also gave a WBC [4] of 98.2 x10_2/uL, a KIDNEY_L [2] of 1.2 g and a KIDNEY_R [2] of 1.1 g. The KIDNEY_TOTAL [2] was 2.3 g, the KIDNEY_L [3] was 1.3 g and the KIDNEY_R [3] was 1.3 g. The KIDNEY_TOTAL [3] was 2.6 g, the KIDNEY_L [4] was 1.6 g and the KIDNEY_R [4] was 1.5 g. The KIDNEY_TOTAL [4] was 3.1 g, the LIVER [2] was 14.5 g and the LIVER [3] was 14.8 g. The LIVER [4] was 16.8 g, the ALP [2] was 857.6 IU/L and the ALT [2] was 34 IU/L. It also gave an AST [2] of 63 IU/L, a BUN [2] of 17 mg/dL and a CRE [2] of 0.5 mg/dL. For the same compound, the Ca [2] was 10.7 mg/dL, the Cl [2] was 102.2 meq/L and the DBIL [2] was 0.1 mg/dL. The GLC [2] was 207.6 mg/dL, the IP [2] was 7.3 mg/dL and the K [2] was 3.6 meq/L. For the same compound, the LDH [2] was 233.2 IU/L, the Na [2] was 141.2 meq/L and the PL [2] was 175 mg/dL. It also gave an RALB [2] of 3.5 g/dL, a TBIL [2] of 0.1 mg/dL and a TC [2] of 93.4 mg/dL. It also gave a TP [2] of 5.9 g/dL, a gamma-GTP [2] of 1 IU/L and an ALP [3] of 733.4 IU/L. The ALT [3] was 37.6 IU/L, the AST [3] was 64.6 IU/L and the BUN [3] was 16.5 mg/dL. The CRE [3] was 0.5 mg/dL, the Ca [3] was 10.6 mg/dL and the Cl [3] was 101.6 meq/L. For the same compound, the DBIL [3] was 0.1 mg/dL, the GLC [3] was 205.4 mg/dL and the IP [3] was 7.5 mg/dL. It also gave a K [3] of 3.7 meq/L, an LDH [3] of 203.2 IU/L and a Na [3] of 141.4 meq/L. The PL [3] was 161.2 mg/dL, the RALB [3] was 3.4 g/dL and the TBIL [3] was 0.2 mg/dL. It also gave a TC [3] of 84.4 mg/dL, a TP [3] of 5.9 g/dL and a gamma-GTP [3] of 1.2 IU/L. For the same compound, the ALP [4] was 641.4 IU/L, the ALT [4] was 41.2 IU/L and the AST [4] was 62.2 IU/L. It also gave a BUN [4] of 17.4 mg/dL, a CRE [4] of 0.4 mg/dL and a Ca [4] of 10.2 mg/dL. It also gave a Cl [4] of 101.8 meq/L, a DBIL [4] of 0.092 mg/dL and a GLC [4] of 213.8 mg/dL. It also gave an IP [4] of 7 mg/dL, a K [4] of 3.6 meq/L and an LDH [4] of 138.6 IU/L. For the same compound, the Na [4] was 141.4 meq/L, the PL [4] was 158.2 mg/dL and the RALB [4] was 3.5 g/dL. The TBIL [4] was 0.1 mg/dL, the TP [4] was 6.2 g/dL and the gamma-GTP [4] was 0.6 IU/L. For the same compound, the TERMINAL_BW [5] was 224.7 g and the APTT [5] was 20.4 s.
